Results from PubChem BioAssay (NCI).
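These data come from cells grown in 96-well plates and exposed to compound for 48 hours at five concentrations. Here, GI50 denotes the concentration required for 50% inhibition of growth. Definition used: TGI = concentration required for complete inhibition of growth.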

Assays:
Experiment in all cases: DTP human tumour cell line panel, 48 h
M14 melanoma = system: M14 melanoma
MDA-MB-231 breast = system: MDA-MB-231 breast
HOP-62 NSCLC = system: HOP-62 NSCLC
SR leukemia = system: SR leukemia
MDA-MB-435 = system: MDA-MB-435
OVCAR-3 ovarian = system: OVCAR-3 ovarian
MCF7 breast = system: MCF7 breast
NCI-H23 lung = system: NCI-H23 lung
HT29 colon = system: HT29 colon
LOX IMVI melanoma = system: LOX IMVI melanoma
MDA-MB-468 breast = system: MDA-MB-468 breast
BT-549 breast = system: BT-549 breast
HCT-116 colon = system: HCT-116 colon
UACC-62 melanoma = system: UACC-62 melanoma
DU-145 prostate = system: DU-145 prostate
SF-539 CNS = system: SF-539 CNS
ACHN renal = system: ACHN renal
SK-MEL-5 melanoma = system: SK-MEL-5 melanoma
COLO 205 colon = system: COLO 205 colon
T-47D breast = system: T-47D breast
UO-31 renal = system: UO-31 renal
NCI-H522 lung = system: NCI-H522 lung
HOP-92 NSCLC = system: HOP-92 NSCLC
NCI-H460 lung = system: NCI-H460 lung
EKVX NSCLC = system: EKVX NSCLC
SNB-19 CNS = system: SNB-19 CNS
MALME-3M melanoma = system: MALME-3M melanoma
NCI/ADR-RES ovarian = system: NCI/ADR-RES ovarian
SNB-75 CNS = system: SNB-75 CNS
UACC-257 melanoma = system: UACC-257 melanoma
OVCAR-8 ovarian = system: OVCAR-8 ovarian
SF-295 CNS = system: SF-295 CNS
KM12 colon = system: KM12 colon
A498 renal = system: A498 renal
SK-MEL-2 melanoma = system: SK-MEL-2 melanoma
SW-620 colon = system: SW-620 colon
OVCAR-5 ovarian = system: OVCAR-5 ovarian
PC-3 prostate = system: PC-3 prostate
SK-MEL-28 melanoma = system: SK-MEL-28 melanoma
SK-OV-3 ovarian = system: SK-OV-3 ovarian
SN12C renal = system: SN12C renal
NCI-H226 lung = system: NCI-H226 lung
RPMI-8226 leukemia = system: RPMI-8226 leukemia
HCC-2998 colon = system: HCC-2998 colon
TK-10 renal = system: TK-10 renal
CAKI-1 renal = system: CAKI-1 renal
HL-60(TB) leukemia = system: HL-60(TB) leukemia
A549 NSCLC = system: A549 NSCLC
CCRF-CEM leukemia = system: CCRF-CEM leukemia
K-562 leukemia = system: K-562 leukemia
HCT-15 colon = system: HCT-15 colon
IGROV1 ovarian = system: IGROV1 ovarian
MOLT-4 leukemia = system: MOLT-4 leukemia
786-0 renal = system: 786-0 renal
OVCAR-4 ovarian = system: OVCAR-4 ovarian
SF-268 CNS = system: SF-268 CNS
RXF 393 renal = system: RXF 393 renal
U251 CNS = system: U251 CNS
HS 578T breast = system: HS 578T breast

## C[C@H]1[C@H](C)CC[C@]2(COC(=O)CCC(=O)NCC#CCN3CCNCC3)CC[C@]3(C)C(=CC[C@@H]4[C@@]5(C)CCCNC(C)(C)[C@@H]5CC[C@]43C)[C@H]12
M14 melanoma
  GI50: 15.7 µM
  TGI: 30.9 µM
MDA-MB-231 breast
  GI50: 18.2 µM
  TGI: 32.1 µM
HOP-62 NSCLC
  GI50: 18.9 µM
  TGI: 36.8 µM
SR leukemia
  GI50: 15.4 µM
  TGI: 61.5 µM
MDA-MB-435
  GI50: 14.1 µM
  TGI: 27.5 µM
OVCAR-3 ovarian
  GI50: 14.1 µM
  TGI: 27.6 µM
MCF7 breast
  GI50: 12.7 µM
  TGI: 25.3 µM
NCI-H23 lung
  GI50: 16.2 µM
  TGI: 30.7 µM
HT29 colon
  GI50: 12.3 µM
  TGI: 26.1 µM
LOX IMVI melanoma
  GI50: 20.5 µM
  TGI: 44.7 µM
MDA-MB-468 breast
  GI50: 10.7 µM
  TGI: 25.9 µM
BT-549 breast
  GI50: 16.2 µM
  TGI: 32.7 µM
HCT-116 colon
  GI50: 11.5 µM
  TGI: 23.6 µM
UACC-62 melanoma
  GI50: 14 µM
  TGI: 27.2 µM
DU-145 prostate
  GI50: 17.5 µM
  TGI: 31.2 µM
SF-539 CNS
  GI50: 13.9 µM
  TGI: 26.8 µM
ACHN renal
  GI50: 16.4 µM
  TGI: 30 µM
SK-MEL-5 melanoma
  GI50: 14.2 µM
  TGI: 31.9 µM
COLO 205 colon
  GI50: 18.3 µM
  TGI: 36 µM
T-47D breast
  GI50: 19 µM
  TGI: 44.4 µM
UO-31 renal
  GI50: 12 µM
  TGI: 24.3 µM
NCI-H522 lung
  GI50: 16.4 µM
  TGI: 33.7 µM
HOP-92 NSCLC
  GI50: 13.2 µM
  TGI: 41.7 µM
NCI-H460 lung
  GI50: 16.5 µM
  TGI: 30.1 µM
EKVX NSCLC
  GI50: 15.9 µM
  TGI: 32.2 µM
SNB-19 CNS
  GI50: 15.7 µM
  TGI: 29.1 µM
MALME-3M melanoma
  GI50: 15.8 µM
  TGI: 29.2 µM
NCI/ADR-RES ovarian
  GI50: 17.4 µM
  TGI: 34.6 µM
SNB-75 CNS
  GI50: 13.3 µM
  TGI: 37.8 µM
UACC-257 melanoma
  GI50: 16.5 µM
  TGI: 33.5 µM
OVCAR-8 ovarian
  GI50: 19 µM
  TGI: 37.9 µM
SF-295 CNS
  GI50: 22.5 µM
  TGI: 57.2 µM
KM12 colon
  GI50: 17.5 µM
  TGI: 34 µM
A498 renal
  GI50: 15.1 µM
  TGI: 28.3 µM
SK-MEL-2 melanoma
  GI50: 17.7 µM
  TGI: 33.4 µM
SW-620 colon
  GI50: 15.5 µM
  TGI: 28.9 µM
OVCAR-5 ovarian
  GI50: 17.2 µM
  TGI: 30.9 µM
PC-3 prostate
  GI50: 11 µM
  TGI: 27.3 µM
SK-MEL-28 melanoma
  GI50: 16.4 µM
  TGI: 30 µM
SK-OV-3 ovarian
  GI50: 19.4 µM
  TGI: 44.7 µM
SN12C renal
  GI50: 14.7 µM
  TGI: 28.8 µM
NCI-H226 lung
  GI50: 27.3 µM
  TGI: > 100 µM
RPMI-8226 leukemia
  GI50: 17 µM
  TGI: 94.5 µM
HCC-2998 colon
  GI50: 15.1 µM
  TGI: 29.2 µM
TK-10 renal
  GI50: 18.9 µM
  TGI: 37.4 µM
CAKI-1 renal
  GI50: 14.7 µM
  TGI: 28.4 µM
HL-60(TB) leukemia
  GI50: 4.98 µM
  TGI: 27.1 µM
A549 NSCLC
  GI50: 14.9 µM
  TGI: 28.1 µM
CCRF-CEM leukemia
  GI50: 16.8 µM
  TGI: 48.2 µM
K-562 leukemia
  GI50: 6.02 µM
  TGI: 20.5 µM
HCT-15 colon
  GI50: 14.5 µM
  TGI: 27.6 µM
IGROV1 ovarian
  GI50: 14.3 µM
  TGI: 27.3 µM
MOLT-4 leukemia
  GI50: 9.96 µM
  TGI: 32.9 µM
786-0 renal
  GI50: 15 µM
  TGI: 34.6 µM
OVCAR-4 ovarian
  GI50: 25.1 µM
  TGI: 72.9 µM
SF-268 CNS
  GI50: 17.9 µM
  TGI: 40.1 µM
RXF 393 renal
  GI50: 18.2 µM
  TGI: 45.6 µM
U251 CNS
  GI50: 16.9 µM
  TGI: 32 µM
HS 578T breast
  GI50: 20.9 µM
  TGI: 55.7 µM
